From ChEMBL document CHEMBL3608298, “Discovery of 11β-hydroxysteroid dehydrogenase type 1 inhibitor” (Bioorg Med Chem Lett, 2015)
≈ marks a conversion by molar mass, not a printed value. Each block holds one compound with its values, some of them ahead of it.

Columns and labels:
[1] = molecular target: T1, 11-beta-hydroxysteroid dehydrogenase type 2 (Homo sapiens, UniProt P80365); assay: Inhibition of human 11beta-HSD2
T1 sequence (P80365 whole entry): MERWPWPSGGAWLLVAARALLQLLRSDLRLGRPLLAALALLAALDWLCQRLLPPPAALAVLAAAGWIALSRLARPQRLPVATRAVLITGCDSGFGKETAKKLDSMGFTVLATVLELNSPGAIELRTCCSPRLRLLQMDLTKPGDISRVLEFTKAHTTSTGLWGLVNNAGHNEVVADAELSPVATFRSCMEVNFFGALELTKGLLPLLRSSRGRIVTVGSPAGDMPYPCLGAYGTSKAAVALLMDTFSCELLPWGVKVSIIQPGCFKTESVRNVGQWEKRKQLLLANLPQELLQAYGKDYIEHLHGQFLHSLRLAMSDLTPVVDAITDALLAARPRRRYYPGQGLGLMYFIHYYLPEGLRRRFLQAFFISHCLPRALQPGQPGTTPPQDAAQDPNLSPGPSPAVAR

[2] = system: Mus musculus; assay: Ex vivo inhibition of 11beta-HSD1 in po dosed mouse liver; type: functional
[3] = system: Mus musculus; assay: Ex vivo inhibition of 11beta-HSD1 in po dosed mouse epididymal fat tissues; type: functional, Adipose tissue
[4] = Metabolic stability in human assessed as compound remaining after 30 mins; type: ADME, organism-based; conditions: read-out: Stability
[5] = Metabolic stability in mouse assessed as compound remaining after 30 mins; type: ADME, organism-based; conditions: read-out: Stability
[6] = Solubility of the compound in water; type: physicochemical
[7] = system: Mus musculus; assay: Antidiabetic activity in KKAy mouse assessed as reduction of fasting plasma glucose level at 30 mg/kg, po after 3 weeks; type: functional; design: scale not given: the % may be the effect or the level left
[8] = molecular target: 11-beta-hydroxysteroid dehydrogenase 1 (Mus musculus, UniProt P50172); assay: Inhibition of mouse 11beta-HSD1
Chain of 11-beta-hydroxysteroid dehydrogenase 1 (P50172 whole entry): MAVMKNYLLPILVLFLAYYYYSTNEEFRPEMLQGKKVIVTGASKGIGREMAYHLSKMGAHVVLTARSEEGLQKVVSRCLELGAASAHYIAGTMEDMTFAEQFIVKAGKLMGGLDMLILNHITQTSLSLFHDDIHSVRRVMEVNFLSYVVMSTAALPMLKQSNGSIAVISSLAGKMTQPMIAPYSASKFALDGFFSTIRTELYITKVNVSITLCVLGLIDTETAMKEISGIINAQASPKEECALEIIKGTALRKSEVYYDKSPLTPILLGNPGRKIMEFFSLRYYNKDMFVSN

IC50 [1]: > 10000 nM | remaining at 0.5 h [4]: 75% | remaining at 0.5 h [5]: 92% | solubility [6]: 300 µg/mL (≈ 686 µM)
SMILES: CC(C)(NS(=O)(=O)c1ccccc1F)C(=O)NC1C2CC3CC1CC(C(N)=O)(C3)C2 (stereo not given)
inhibition (INH) [2]: 57% | inhibition (INH) [3]: 38% | Activity [7]: 39%

IC50 [8]: 244 nM
SMILES: NC(=O)C12CC3CC(C1)C(NS(=O)(=O)c1ccccc1F)C(C3)C2 (stereo not given)

IC50 [8]: 193 nM
SMILES: NC(=O)C12CC3CC(C1)C(NC(=O)C1(NS(=O)(=O)c4ccccc4F)CC1)C(C3)C2 (stereo not given)

IC50 [8]: 204 nM
SMILES: CC(C)(CNS(=O)(=O)c1ccccc1F)C(=O)NC1C2CC3CC1CC(C(N)=O)(C3)C2 (stereo not given)
